Experimental data published in the supplement of paper PMC10627819.

Tests used:
S. aureus Newman = test: Bliss interaction score (quartile over a dose matrix) (fitness difference); higher = more antagonism (negative = synergy)
In short: (§1)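 Fitness was derived from optical density at entry into stationary phase, divided by the robust mean of the no-drug wells on the same plate. That reading was taken as OD595, and the ratio was capped at 1. Single-drug fitness was inferred from the combination data. The Bliss score, observed fitness minus the expected product of single-drug fitness, was summarised as quartiles over technical, biological and donor/recipient replicates.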

S. aureus DSM 20231 = test: as above
In short: as §1

S. pneumoniae D39V [1] = test: as above
In short: as §1

B. subtilis 168 = test: as above
In short: as §1

S. pneumoniae D39V [2] = test: fitness (endpoint OD595 vs no drug) (fraction); higher = more growth
In short: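 Fitness was defined as the optical density at the transition into stationary phase relative to the robust mean of no-drug control wells. Values were capped at 1. Cultures were started at OD595 0.01 in 384-well plates (30 µl, or 55 µl for S. pneumoniae) in TSB, LB Lennox or CY at 37 °C. OD595 was recorded every 30 min over 14 h, with the first reading subtracted as background.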
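For Bliss interaction score (quartile over a dose matrix) in this document: first quartile when negative (synergy) and third quartile when positive (antagonism).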

CC1=C(C(=O)O)N2C(=O)[C@@H](NC(=O)[C@H](N)c3ccccc3)[C@H]2SC1 [Cephalexin] + CO[C@H]1/C=C/O[C@@]2(C)Oc3c(C)c(O)c4c(O)c(c(/C=N/N5CCN(C)CC5)c(O)c4c3C2=O)NC(=O)/C(C)=C\C=C\[C@H](C)[C@H](O)[C@@H](C)[C@@H](O)[C@@H](C)[C@H](OC(C)=O)[C@@H]1C [Rifampicin]
Settings | Bliss interaction score
B. subtilis 168 | 0.12
S. aureus DSM 20231 | 0.0837
S. aureus Newman | 0.0156
S. pneumoniae D39V [1] | -0.065

fitness, S. pneumoniae D39V [2], one replicate
Settings | first compound 0.125 µg/mL | first compound 0.25 µg/mL | first compound 0.5 µg/mL | first compound 1 µg/mL | first compound 2 µg/mL | first compound 4 µg/mL
partner 0.025 µg/mL | – | – | – | 0.258 | 0.0265 | 0.0322
partner 0.05 µg/mL | 0.714 | 0.774 | 0.7 | – | – | –
partner 0.1 µg/mL | 0.314 | 0.257 | 0.225 | – | – | –
partner 0.2 µg/mL | 0.207 | 0.141 | 0.108 | 0 | 0 | 0

fitness, S. pneumoniae D39V [2]
Settings | first compound 1 µg/mL | first compound 2 µg/mL | first compound 4 µg/mL
partner 0.05 µg/mL | 0.301 | 0.0661 | 0.0542
partner 0.1 µg/mL | 0.14 | 0.0642 | 0.0638

CC1=C(C(=O)O)N2C(=O)[C@@H](NC(=O)[C@H](N)c3ccccc3)[C@H]2SC1 [Cephalexin] + Clc1ccc(COC(Cn2ccnc2)c2ccc(Cl)cc2Cl)c(Cl)c1 [Miconazole]
Settings | Bliss interaction score
B. subtilis 168 | 0.0898
S. aureus DSM 20231 | 0.0471
S. aureus Newman | 0.063
S. pneumoniae D39V [1] | -0.0715

fitness, S. pneumoniae D39V [2], one replicate
Settings | first compound 0.125 µg/mL | first compound 0.25 µg/mL | first compound 0.5 µg/mL
partner 1.25 µg/mL | 0.987 | 0.878 | 0.858
partner 2.5 µg/mL | 0.885 | 0.826 | 0.819
partner 5 µg/mL | 0.89 | 0.867 | 0.893

fitness, S. pneumoniae D39V [2]
Settings | first compound 1 µg/mL | first compound 2 µg/mL | first compound 4 µg/mL
partner 1.073 µg/mL | – | – | 0.0455
partner 2.145 µg/mL | – | – | 0.0466
partner 4.29 µg/mL | 0.482 | 0.37 | 0.234

CC1=C(C(=O)O)N2C(=O)[C@@H](NC(=O)[C@H](N)c3ccccc3)[C@H]2SC1 [Cephalexin] + O=C1CN(/N=C/c2ccc([N+](=O)[O-])o2)C(=O)N1 [Nitrofurantoin]
Settings | Bliss interaction score
B. subtilis 168 | 0.0716
S. aureus DSM 20231 | 0.145
S. aureus Newman | 0.0656
S. pneumoniae D39V [1] | 0.168

fitness, S. pneumoniae D39V [2], one replicate
Settings | first compound 0.125 µg/mL | first compound 0.25 µg/mL | first compound 0.5 µg/mL | first compound 1 µg/mL | first compound 2 µg/mL | first compound 4 µg/mL
partner 2 µg/mL | 0.934 | 0.942 | 0.958 | – | – | –
partner 4 µg/mL | 0.92 | 0.958 | 0.953 | – | – | –
partner 5.14 µg/mL | – | – | – | 0.716 | 0.243 | 0.0653
partner 8 µg/mL | 0.756 | 0.775 | 0.805 | – | – | –

fitness, S. pneumoniae D39V [2]
Settings | first compound 1 µg/mL | first compound 2 µg/mL | first compound 4 µg/mL
partner 1.285 µg/mL | 0.762 | 0.226 | 0.0641
partner 2.57 µg/mL | 0.768 | 0.336 | 0.0742

CNC(C)C1CCC(N)C(OC2C(N)CC(N)C(OC3OCC(C)(O)C(NC)C3O)C2O)O1 (stereo not given) [Gentamicin] + CO[C@H]1/C=C/O[C@@]2(C)Oc3c(C)c(O)c4c(O)c(c(/C=N/N5CCN(C)CC5)c(O)c4c3C2=O)NC(=O)/C(C)=C\C=C\[C@H](C)[C@H](O)[C@@H](C)[C@@H](O)[C@@H](C)[C@H](OC(C)=O)[C@@H]1C [Rifampicin]
main component drawn
Settings | Bliss interaction score
B. subtilis 168 | 0.225
S. aureus DSM 20231 | 0.0516
S. aureus Newman | 0.0286
S. pneumoniae D39V [1] | 0.083

S. pneumoniae D39V [2], partner 0.025 µg/mL, main component drawn
Settings | fitness
first compound 2 µg/mL | ≥ 1
first compound 4 µg/mL | ≥ 1
first compound 8 µg/mL | 0.935

S. pneumoniae D39V [2], partner 0.2 µg/mL, one replicate, main component drawn
Settings | fitness
first compound 2 µg/mL | 0
first compound 4 µg/mL | 0
first compound 8 µg/mL | 0

CNC(C)C1CCC(N)C(OC2C(N)CC(N)C(OC3OCC(C)(O)C(NC)C3O)C2O)O1 (stereo not given) [Gentamicin] + C[C@@H](O)[C@H]1C(=O)N2C(C(=O)O)=C(SCCNC=N)C[C@H]12 [Imipenem]
main component drawn
Settings | Bliss interaction score
B. subtilis 168 | 0.199
S. aureus DSM 20231 | 0.0591
S. aureus Newman | -0.0478
S. pneumoniae D39V [1] | 0.0671

fitness, S. pneumoniae D39V [2], main component drawn
Settings | partner 0.005 µg/mL | partner 0.0065 µg/mL | partner 0.01 µg/mL | partner 0.013 µg/mL | partner 0.02 µg/mL | partner 0.026 µg/mL
first compound 2 µg/mL | 0.924 | 0.989 | 0.915 | ≥ 1 | 0.914 | 0.661
first compound 4 µg/mL | 0.928 | 0.971 | 0.922 | 0.996 | 0.92 | 0.964
first compound 8 µg/mL | 0.895 | 0.917 | 0.864 | 0.931 | 0.874 | 0.892

CNC(C)C1CCC(N)C(OC2C(N)CC(N)C(OC3OCC(C)(O)C(NC)C3O)C2O)O1 (stereo not given) [Gentamicin] + Clc1ccc(COC(Cn2ccnc2)c2ccc(Cl)cc2Cl)c(Cl)c1 [Miconazole]
main component drawn
Settings | Bliss interaction score
B. subtilis 168 | -0.151
S. aureus DSM 20231 | 0.102
S. aureus Newman | 0.0417
S. pneumoniae D39V [1] | 0.0753

fitness, S. pneumoniae D39V [2], main component drawn
Settings | partner 1.073 µg/mL | partner 1.25 µg/mL | partner 2.145 µg/mL | partner 2.5 µg/mL | partner 4.29 µg/mL | partner 5 µg/mL
first compound 2 µg/mL | ≥ 1 | 0.915 | ≥ 1 | 0.901 | 0.912 | 0.905
first compound 4 µg/mL | ≥ 1 | 0.884 | 0.998 | 0.893 | 0.987 | 0.911
first compound 8 µg/mL | 0.996 | 0.838 | ≥ 1 | 0.868 | 0.913 | 0.875

CNC(C)C1CCC(N)C(OC2C(N)CC(N)C(OC3OCC(C)(O)C(NC)C3O)C2O)O1 (stereo not given) [Gentamicin] + O=C1CN(/N=C/c2ccc([N+](=O)[O-])o2)C(=O)N1 [Nitrofurantoin]
main component drawn
Settings | Bliss interaction score
B. subtilis 168 | -0.138
S. aureus DSM 20231 | -0.0432
S. aureus Newman | 0.0572
S. pneumoniae D39V [1] | 0.0782

fitness, S. pneumoniae D39V [2], main component drawn
Settings | partner 1.285 µg/mL | partner 2 µg/mL | partner 2.57 µg/mL | partner 4 µg/mL | partner 8 µg/mL
first compound 2 µg/mL | 0.948 | 0.861 | 0.951 | 0.791 | 0.45
first compound 4 µg/mL | 0.943 | 0.897 | 0.945 | 0.747 | 0.409
first compound 8 µg/mL | 0.953 | 0.831 | 0.957 | 0.659 | 0.368

S. pneumoniae D39V [2], partner 5.14 µg/mL, one replicate, main component drawn
Settings | fitness
first compound 2 µg/mL | 0.945
first compound 4 µg/mL | 0.947
first compound 8 µg/mL | 0.918

Clc1ccc(COC(Cn2ccnc2)c2ccc(Cl)cc2Cl)c(Cl)c1 (stereo not given) [Miconazole] + C/C(=C\C(=O)OCCCCCCCCC(=O)O)C[C@@H]1OC[C@H](C[C@@H]2O[C@H]2[C@@H](C)[C@H](C)O)[C@@H](O)[C@H]1O [Pseudomonic acid]
Settings | Bliss interaction score
B. subtilis 168 | -0.0459
S. aureus DSM 20231 | 0.0125
S. aureus Newman | -0.0143
S. pneumoniae D39V [1] | 0.126

fitness, S. pneumoniae D39V [2]
Settings | first compound 1.073 µg/mL | first compound 1.25 µg/mL | first compound 2.145 µg/mL | first compound 2.5 µg/mL | first compound 4.29 µg/mL | first compound 5 µg/mL
partner 0.03 µg/mL | 0.988 | 0.915 | ≥ 1 | 0.894 | ≥ 1 | 0.88
partner 0.06 µg/mL | 0.914 | 0.746 | 0.94 | 0.754 | 0.981 | 0.681
partner 0.12 µg/mL | 0.734 | 0.563 | 0.759 | 0.551 | – | 0.549

Clc1ccc(COC(Cn2ccnc2)c2ccc(Cl)cc2Cl)c(Cl)c1 (stereo not given) [Miconazole] + CC1=C\[C@@H](O)CC(=O)Cc2nc(co2)C(=O)N2CCC=C2C(=O)O[C@H](C(C)C)[C@H](C)/C=C/C(=O)NC\C=C\1 [Virginiamycin M1]
Settings | Bliss interaction score
B. subtilis 168 | 0.103
S. aureus DSM 20231 | 0.0731
S. aureus Newman | 0.0829
S. pneumoniae D39V [1] | 0.0555

fitness, S. pneumoniae D39V [2]
Settings | first compound 1.073 µg/mL | first compound 1.25 µg/mL | first compound 2.145 µg/mL | first compound 2.5 µg/mL | first compound 4.29 µg/mL | first compound 5 µg/mL
partner 0.5 µg/mL | ≥ 1 | – | ≥ 1 | – | 0.882 | –
partner 1 µg/mL | ≥ 1 | – | ≥ 1 | – | ≥ 1 | –
partner 2 µg/mL | 0.983 | 0.902 | ≥ 1 | 0.903 | 0.988 | 0.879

fitness, S. pneumoniae D39V [2], one replicate
Settings | partner 0.15 µg/mL | partner 0.3 µg/mL | partner 0.5 µg/mL | partner 1 µg/mL
first compound 1.25 µg/mL | 0.949 | 0.905 | ≥ 1 | ≥ 1
first compound 2.5 µg/mL | 0.95 | 0.902 | ≥ 1 | ≥ 1
first compound 5 µg/mL | 0.906 | 0.904 | 0.997 | 0.891
